# Results reported in PubChem BioAssay AID743504 (Broad Institute, 2014).
# The source made the active and inactive calls.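 Rule for the calls: active = compounds blocking the hormone-driven reporter light with IC50 under 35 µM; inactive = IC50 above 35 µM, or no measured IC50.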
# Target: Bursicon receptor (Drosophila rickets, LGR2)
# Test: inhibition of bursicon-stimulated LGR2 cAMP signaling – cell-based, HEK293, CRE-luciferase, beta-gal normalized, dry powder, set 4, dose response (AID 743504)
# Settings: antagonist
row,IC50,SMILES
1,< 35 µM,C[C@H](CO)N1C[C@H](C)[C@H](CN(C)C(=O)Nc2ccc(F)cc2)OCCCC[C@H](C)Oc2ccc(NC(=O)C3CCCCC3)cc2C1=O
2,< 35 µM,COc1ccc(NC(=O)N(C)C[C@@H]2OCCCC[C@H](C)Oc3ccc(NC(=O)C4CCCCC4)cc3C(=O)N([C@H](C)CO)C[C@@H]2C)cc1
3,< 35 µM,C[C@H](CO)N1C[C@H](C)[C@H](CN(C)C(=O)Nc2ccc3c(c2)OCO3)OCCCC[C@H](C)Oc2ccc(NC(=O)C3CCCCC3)cc2C1=O
4,> 35 µM (inactive),C[C@@H]1CCCCO[C@H](CN(C)C(=O)Nc2ccc(F)cc2)[C@H](C)CN([C@@H](C)CO)C(=O)c2cc(NC(=O)C3CCCCC3)ccc2O1
5,< 35 µM,C[C@H](CO)N1C[C@H](C)[C@H](CN(C)C(=O)Nc2ccccc2)OCCCC[C@H](C)Oc2ccc(NC(=O)C3CCCCC3)cc2C1=O
